US20240294541A1, “COMPOUNDS CONSTITUTING C20-MODIFIED SALINOMYCIN DERIVATIVES, A METHOD FOR OBTAINING THE SAME, A COMPOSITION CONTAINING THE SAME AND A USE OF SAID COMPOUNDS” (FILECLO SPOLKA Z OGRANICZONA ODPOWIEDZIALNOSCIA, priority 2021, published 2024)
pIC50: −log10 of the molar value. Values joined by “and” are separate entries in the source; they are usually repeats but may differ in a detail not shown here. Identical values can stand only once. Like-named read-outs stand apart in the source and are kept apart here.

Key:
Assay type in all cases: cell-based
[1] = system: NCI-H23 (human lung cancer); experiment: In vitro cytotoxicity, SRB assay, NCI-H23; conditions: 72 h with compound, SRB, n/a = non-active compound, read-out: NCI-H23 IC50
[2] = system: PFSK-1 (malignant primitive neuroectodermal tumour); experiment: In vitro cytotoxicity, SRB assay, PFSK-1; conditions: 72 h with compound, SRB, n/a = non-active compound, read-out: PFSK-1 IC50
[3] = system: A2780 (human ovarian cancer); experiment: In vitro cytotoxicity, SRB assay, A2780; conditions: 72 h with compound, SRB, n/a = non-active compound, read-out: A2780 IC50
[4] = system: A2780Cis (cisplatin-resistant human ovarian cancer); experiment: In vitro cytotoxicity, SRB assay, A2780Cis; conditions: for IC50: read-out: IC50 (nM) A2780Cis
A375 (human melanoma) = experiment: In vitro cytotoxicity, SRB assay, A375; conditions: 72 h with compound, SRB, n/a = non-active compound, read-out: A375 IC50
Hs294T (human melanoma) = experiment: cells; conditions: for pIC50: 72 h with compound, SRB, n/a = non-active compound, read-out: Hs294T IC50; for IC50: Hs294T human melanoma cells, read-out: IC50 (nM) Hs294T
[5] = system: PLC/PRF/5 (human liver cancer); experiment: cells; conditions: for pIC50: 72 h with compound, SRB, n/a = non-active compound, read-out: PLC/PRF/5 IC50; for IC50: PLC/PRF/5 human liver cancer cells, read-out: IC50 (nM) PLC/PRF/5
[6] = system: SNU-16 (human gastric cancer); experiment: cells; conditions: for pIC50: 72 h with compound, MTT, n/a = non-active compound, read-out: SNU-16 IC50; for IC50: SNU-16 human gastric cancer cells, read-out: IC50 (nM) SNU-16
[7] = system: MIA PaCa-2 (human pancreatic cancer); experiment: cells; conditions: for pIC50: 72 h with compound, SRB, n/a = non-active compound, read-out: MIA PaCa-2 IC50; for IC50: MIA PaCa-2 human pancreatic cancer cells, read-out: IC50 (nM) MIA PaCa-2
[8] = system: BALB/3T3 (normal mouse fibroblasts); experiment: In vitro cytotoxicity, SRB assay, normal BALB/3T3 fibroblasts; conditions: for IC50: BALB/3T3 normal mouse fibroblasts, read-out: IC50 (nM) BALB3T3 normal cells
[9] = system: MV-4-11 (human biphenotypic leukaemia); experiment: In vitro cytotoxicity, MTT assay, MV-4-11
[10] = system: NCI-H358 (human lung cancer); experiment: cells; conditions: Table 4; for IC50: NCI-H358 human lung cancer cells, read-out: IC50 (nM) NCI-H358
[11] = system: KG-1 (human acute myeloid leukaemia); experiment: In vitro cytotoxicity, MTT assay, KG-1; conditions: Homo sapiens; 72 h with compound, MTT; n/a = non-active compound
cancer cells = experiment: In vitro cytotoxic activity on the panel of cancer cell lines (MTT/SRB), general statements; conditions: Tables 3.1, 3.2, 4 and 5; parent compound salinomycin
[12] = Table 4, selectivity coefficient vs normal BALB/3T3 fibroblasts
[13] = Homo sapiens, MV4-11, read-out: IC50 (nM) MV4-11

SMILES: N.N.[Cl][Pt][Cl] [Cisplatin, cisplatin, reference compound]
- pIC50 [1]: 5.63
- pIC50 [2]: 5.82
- pIC50 [3]: 6.75
- A2780Cis RI [4]: 14.6
- pIC50 ([4]; read-out: A2780Cis IC50): 5.58
- IC50 [4]: 2610 nM and 2870 nM
- pIC50 (A375 (human melanoma)): 6.39
- pIC50 (Hs294T (human melanoma)): 6.13
- IC50 (Hs294T (human melanoma); Table 4): 736 nM
- pIC50 [5]: 5.80
- IC50 ([5]; Table 4): 1580 nM
- pIC50 [6]: 5.63
- IC50 ([6]; Table 4): 2330 nM
- pIC50 [7]: 5.63
- IC50 ([7]; Table 4): 2360 nM
- IC50 ([8]; Table 4): 1390 nM
- IC50 ([8]; Table 5): 1390 nM
- pIC50 ([8]; normal cells, 72 h with compound, SRB, n/a = non-active compound, read-out: BALB/3T3 IC50): 5.86
- IC50 ([9]; read-out: IC50 (nM) MV4-11): 166 nM
- IC50 [10]: 2550 nM

SMILES: CC[C@@H](C(=O)[C@@H](C)[C@@H](O)[C@H](C)[C@@H]1O[C@@H]([C@@H](CC)C(=O)O)CC[C@@H]1C)[C@H]1O[C@]2(C=C[C@@H](O)[C@]3(CC[C@@](C)([C@H]4CC[C@](O)(CC)[C@H](C)O4)O3)O2)[C@H](C)C[C@@H]1C [FLC-00001 (SAL), Salinomycin]
- pIC50 ([1]; Homo sapiens, NCI-H23): 6.45
- pIC50 ([2]; Homo sapiens, PFSK-1): 6.47
- pIC50 ([3]; Homo sapiens, A2780): 6.92
- pIC50 (A375 (human melanoma); Homo sapiens, A-375): 6.24
- pIC50 (Hs294T (human melanoma); Homo sapiens, Hs 294T): 5.67
- IC50 (Hs294T (human melanoma); Hs 294T, Table 4): 2160 nM
- pIC50 ([5]; Homo sapiens, PLC-PRF-5): 6.30
- IC50 ([5]; Table 4): 504 nM
- pIC50 ([6]; Homo sapiens, SNU-16): 6.84
- IC50 ([6]; Table 4): 145 nM
- pIC50 [11]: 6.37
- pIC50 ([7]; Homo sapiens, MIA PaCa-2): 6.52
- IC50 ([7]; Table 4): 304 nM
- IC50 [10]: 600 nM

SMILES: CC[C@@H](C(=O)[C@@H](C)[C@@H](O)[C@H](C)[C@@H]1O[C@@H]([C@@H](CC)C(=O)O)CC[C@@H]1C)[C@H]1O[C@]2(C=C[C@@H](NC(=O)c3ccccc3Cl)[C@]3(CC[C@@](C)([C@H]4CC[C@](O)(CC)[C@H](C)O4)O3)O2)[C@H](C)C[C@@H]1C [FLC-00462-1•Na]
- SI A2780Cis [4]: 24.5
- IC50 ([4]; Homo sapiens, A2780cis): 22.5 nM
- IC50 (Hs294T (human melanoma); Hs 294T, Table 4): 1810 nM
- SI Hs294T (Hs294T (human melanoma); [12]): 0.3
- IC50 ([5]; Table 4): 63.8 nM
- SI PLC/PRF/5 [5, 12]: 8.6
- IC50 ([6]; Table 4): 339 nM
- SI SNU-16 [6, 12]: 1.6
- IC50 ([7]; Table 4): 52 nM
- SI MIA PaCa-2 [7, 12]: 10.6
- IC50 ([8]; Table 4): 552 nM
- SI MV4-11 [9]: 40.4
- IC50 [9, 13]: 13.7 nM
- IC50 [10]: 397 nM
- SI NCI-H358 ([10]; selectivity coefficient vs normal BALB/3T3 fibroblasts): 1.39

SMILES: CC[C@@H](C(=O)[C@@H](C)[C@@H](O)[C@H](C)[C@@H]1O[C@@H]([C@@H](CC)C(=O)O)CC[C@@H]1C)[C@H]1O[C@]2(C=C[C@@H](NC(=O)C3CCC3)[C@]3(CC[C@@](C)([C@H]4CC[C@](O)(CC)[C@H](C)O4)O3)O2)[C@H](C)C[C@@H]1C [FLC-00463-1•Na]
- SI A2780Cis [4]: 266.3
- IC50 ([4]; Homo sapiens, A2780cis): 0.72 nM
- IC50 ([8]; Table 5): 191 nM
- SI MV4-11 [9]: 96.5
- IC50 [9, 13]: 1.98 nM
- anti-proliferative effect compared to that of the parent compound (cancer cells): several times more potent compared to that of the parent compound

SMILES: CC[C@@H](C(=O)[C@@H](C)[C@@H](O)[C@H](C)[C@@H]1O[C@@H]([C@@H](CC)C(=O)O)CC[C@@H]1C)[C@H]1O[C@]2(C=C[C@@H](NC(=O)C3CCCCC3)[C@]3(CC[C@@](C)([C@H]4CC[C@](O)(CC)[C@H](C)O4)O3)O2)[C@H](C)C[C@@H]1C [FLC-00464-1•Na]
- anti-proliferative effect compared to that of the parent compound (cancer cells): several times more potent compared to that of the parent compound

SMILES: CC[C@@H](C(=O)[C@@H](C)[C@@H](O)[C@H](C)[C@@H]1O[C@@H]([C@@H](CC)C(=O)O)CC[C@@H]1C)[C@H]1O[C@]2(C=C[C@@H](NC(=S)NC(C)(C)C)[C@]3(CC[C@@](C)([C@H]4CC[C@](O)(CC)[C@H](C)O4)O3)O2)[C@H](C)C[C@@H]1C [FLC-00467-1•Na]
- SI A2780Cis [4]: ≈853700
- IC50 ([8]; Table 5): 85.4 nM
- SI MV4-11 [9]: ≈853700
- anti-proliferative effect compared to that of the parent compound (cancer cells): several times more potent compared to that of the parent compound

SMILES: CC[C@@H](C(=O)[C@@H](C)[C@@H](O)[C@H](C)[C@@H]1O[C@@H]([C@@H](CC)C(=O)O)CC[C@@H]1C)[C@H]1O[C@]2(C=C[C@@H](NC(=O)c3ccc(F)cc3)[C@]3(CC[C@@](C)([C@H]4CC[C@](O)(CC)[C@H](C)O4)O3)O2)[C@H](C)C[C@@H]1C [FLC-00470-1•Na]
- anti-proliferative effect compared to that of the parent compound (cancer cells): several times more potent compared to that of the parent compound

SMILES: CC[C@@H](C(=O)[C@@H](C)[C@@H](O)[C@H](C)[C@@H]1O[C@@H]([C@@H](CC)C(=O)O)CC[C@@H]1C)[C@H]1O[C@]2(C=C[C@@H](NC(=O)C(C)(C)CCl)[C@]3(CC[C@@](C)([C@H]4CC[C@](O)(CC)[C@H](C)O4)O3)O2)[C@H](C)C[C@@H]1C [FLC-00473-1•Na]
- SI A2780Cis [4]: 179.1
- IC50 ([4]; Homo sapiens, A2780cis): 0.72 nM
- IC50 ([8]; Table 5): 129 nM
- SI MV4-11 [9]: 62.7
- IC50 [9, 13]: 2.05 nM
- anti-proliferative effect compared to that of the parent compound (cancer cells): several times more potent compared to that of the parent compound

SMILES: CC[C@@H](C(=O)[C@@H](C)[C@@H](O)[C@H](C)[C@@H]1O[C@@H]([C@@H](CC)C(=O)O)CC[C@@H]1C)[C@H]1O[C@]2(C=C[C@@H](NC(=S)SC)[C@]3(CC[C@@](C)([C@H]4CC[C@](O)(CC)[C@H](C)O4)O3)O2)[C@H](C)C[C@@H]1C [FLC-00475-1•Na]
- anti-proliferative effect compared to that of the parent compound (cancer cells): several times more potent compared to that of the parent compound

SMILES: CC[C@@H](C(=O)[C@@H](C)[C@@H](O)[C@H](C)[C@@H]1O[C@@H]([C@@H](CC)C(=O)O)CC[C@@H]1C)[C@H]1O[C@]2(C=C[C@@H](NC(=O)c3ccc(OC(F)(F)F)cc3)[C@]3(CC[C@@](C)([C@H]4CC[C@](O)(CC)[C@H](C)O4)O3)O2)[C@H](C)C[C@@H]1C [FLC-00486-1•Na]
- anti-proliferative effect compared to that of the parent compound (cancer cells): several times more potent compared to that of the parent compound

SMILES: CC[C@@H](C(=O)[C@@H](C)[C@@H](O)[C@H](C)[C@@H]1O[C@@H]([C@@H](CC)C(=O)O)CC[C@@H]1C)[C@H]1O[C@]2(C=C[C@@H](NC(=O)C(=O)NCc3ccccc3OC)[C@]3(CC[C@@](C)([C@H]4CC[C@](O)(CC)[C@H](C)O4)O3)O2)[C@H](C)C[C@@H]1C [FLC-00491-1•Na]
- SI A2780Cis [4]: 79.2
- IC50 ([4]; Homo sapiens, A2780cis): 5.19 nM
- IC50 ([8]; Table 5): 411 nM
- SI MV4-11 [9]: 65.3
- IC50 [9, 13]: 6.3 nM
- anti-proliferative effect compared to that of the parent compound (cancer cells): several times more potent compared to that of the parent compound
